Where two headings read alike, the source gives them in different places.
System: test plant species
Test: Post-emergent herbicidal activity test (greenhouse, foliar spray, visual growth reduction)
Type: in vivo
Settings: post-emergence, 336 h, 140 g ai/ha
Procedure, shortened: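 Scoring used a 0 to 100 percent visual scale of growth reduction against solvent-treated controls, read 14 d after spraying. Applications went onto plants at first or second true leaf stage, 187 L/ha, with crop oil concentrate and X-77 surfactant in the carrier. Post-treatment watering was by subirrigation to avoid wash-off.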

[1] = ECHCG: barnyardgrass (Echinochloa crus-galli), 14 days after application, read-out: Visual Growth Reduction (%) 14 Days After Application, ECHCG
[2] = IPOHE: ivy-leaf morning glory (Ipomoea hederacea), 14 days after application, read-out: Visual Growth Reduction (%) 14 Days After Application, IPOHE
[3] = KCHSC: kochia (Bassia scoparia), 14 days after application, read-out: Visual Growth Reduction (%) 14 Days After Application, KCHSC
[4] = ORYSA: rice (Oryza sativa), 14 days after application, read-out: Visual Growth Reduction (%) 14 Days After Application, ORYSA
[5] = SETFA: giant foxtail (Setaria faberi), 14 days after application, read-out: Visual Growth Reduction (%) 14 Days After Application, SETFA
[6] = SORVU: grain sorghum (Sorghum vulgare), 14 days after application, read-out: Visual Growth Reduction (%) 14 Days After Application, SORVU
[7] = STEME: common chickweed (Stellaria media), 14 days after application, read-out: Visual Growth Reduction (%) 14 Days After Application, STEME
[8] = TRZAS: wheat, spring (Triticum aestivum), 14 days after application, read-out: Visual Growth Reduction (%) 14 Days After Application, TRZAS
[9] = blackgrass (Alopecurus myosuroides), 14 Days After Application, read-out: Visual Growth Reduction (%) ALOMY
[10] = canada thistle (Cirsium arvense), 14 Days After Application, read-out: Visual Growth Reduction (%) CIRAR
[11] = crabgrass (Digitaria sanguinalis), 14 Days After Application, read-out: Visual Growth Reduction (%) DIGSA
[12] = lambsquarters (Chenopodium album), 14 Days After Application, read-out: Visual Growth Reduction (%) CHEAL
[13] = redroot pigweed (Amaranthus retroflexus), 14 Days After Application, read-out: Visual Growth Reduction (%) AMARE
[14] = wild oat (Avena fatua), 14 Days After Application, read-out: Visual Growth Reduction (%) AVEFA
[15] = yellow nutsedge (Cyperus esculentus), 14 Days After Application, read-out: Visual Growth Reduction (%) CYPES
[16] = ALOMY: blackgrass (Alopecurus myosuroides), 14 days after application, read-out: Visual Growth Reduction (%) 14 Days After Application, ALOMY
[17] = AMARE: redroot pigweed (Amaranthus retroflexus), 14 days after application, read-out: Visual Growth Reduction (%) 14 Days After Application, AMARE
[18] = AVEFA: wild oat (Avena fatua), 14 days after application, read-out: Visual Growth Reduction (%) 14 Days After Application, AVEFA
[19] = CHEAL: lambsquarters (Chenopodium album), 14 days after application, read-out: Visual Growth Reduction (%) 14 Days After Application, CHEAL
[20] = CIRAR: canada thistle (Cirsium arvense), 14 days after application, read-out: Visual Growth Reduction (%) 14 Days After Application, CIRAR
[21] = CYPES: yellow nutsedge (Cyperus esculentus), 14 days after application, read-out: Visual Growth Reduction (%) 14 Days After Application, CYPES
[22] = DIGSA: crabgrass (Digitaria sanguinalis), 14 days after application, read-out: Visual Growth Reduction (%) 14 Days After Application, DIGSA

Row | Structure (SMILES) | pest or weed control at 140 g/ha [1] | pest or weed control at 140 g/ha [2] | pest or weed control at 140 g/ha [3] | pest or weed control at 140 g/ha [4] | pest or weed control at 140 g/ha [5] | pest or weed control at 140 g/ha [6] | pest or weed control at 140 g/ha [7] | pest or weed control at 140 g/ha [8] | pest or weed control at 140 g/ha [9] | pest or weed control at 140 g/ha [11] | pest or weed control at 140 g/ha [12] | pest or weed control at 140 g/ha [13] | pest or weed control at 140 g/ha [14] | pest or weed control at 140 g/ha [16] | pest or weed control at 140 g/ha [17] | pest or weed control at 140 g/ha [18] | pest or weed control at 140 g/ha [19] | pest or weed control at 140 g/ha [20] | pest or weed control at 140 g/ha [21] | pest or weed control at 140 g/ha [22] | other results
1 | COC(=O)c1nc(-c2ccc(O)cc2F)c(F)cc1Cl [F345, Methyl 3-chloro-5-fluoro-6-(2-fluoro-4-hydroxyphenyl) picolinate] | 0 to 29% | 0 to 29% | 0 to 29% | 0 to 29% | 0 to 29% | 0 to 29% | 0 to 29% | 0 to 29% | 0 to 29% | 0 to 29% | 0 to 29% | 0 to 29% | 0 to 29% |  |  |  |  |  |  |  | pest or weed control at 140 g/ha [10]: 0 to 29%; pest or weed control at 140 g/ha [15]: 0 to 29%
2 | COC(=O)c1nc(-c2cc3c(cc2OC)OC(F)(F)O3)c(F)cc1Cl [F333, Methyl 3-chloro-6-(2,2-difluoro-6-methoxybenzo[d][1,3]dioxol-5-yl)-5-fluoropicolinate] | 30 to 44% | 95 to 100% | 30 to 44% | 0 to 29% | 30 to 44% | 85 to 94% | 0 to 29% | 45 to 59% | 0 to 29% | 60 to 74% | 0 to 29% | 30 to 44% | 0 to 29% |  |  |  |  |  |  |  | pest or weed control at 140 g/ha [15]: 0 to 29%
3 | COC(=O)c1nc(-c2ccc(Cl)c(F)c2Cl)ccc1Cl [F63, Methyl 3-chloro-6-(2,4-dichloro-3-fluorophenyl) picolinate] |  | 95 to 100% | 60 to 74% | 0 to 29% | 75 to 84% | 85 to 94% | 0 to 29% |  |  |  |  |  |  | 0 to 29% | 95 to 100% | 0 to 29% | 95 to 100% | 85 to 94% | 0 to 29% | 85 to 94% | 
4 | O=C(OCc1ccc(Cl)cc1Cl)c1nc(-c2ccc(C(F)(F)F)cc2Cl)ccc1Cl [F116, 2,4-dichlorobenzyl 3-chloro-6-(2-chloro-4-(trifluoromethyl)phenyl)picolinate] | 75 to 84% | 85 to 94% | 75 to 84% | 0 to 29% | 60 to 74% | 85 to 94% | 0 to 29% | 60 to 74% |  |  |  |  |  | 30 to 44% | 95 to 100% | 45 to 59% | 85 to 94% | 85 to 94% | 0 to 29% | 85 to 94% | 
5 | C#Cc1cc(-c2nc(C(=O)OC)c(Cl)cc2F)c(Cl)cc1C(F)(F)F [F251, Methyl 3-chloro-6-(2-chloro-5-ethynyl-4-(trifluoromethyl)phenyl)-5-yl) picolinate] | 0 to 29% | 95 to 100% | 60 to 74% | 0 to 29% | 85 to 94% | 85 to 94% | 0 to 29% | 0 to 29% | 0 to 29% | 75 to 84% | 95 to 100% | 85 to 94% | 0 to 29% |  |  |  |  |  |  |  | pest or weed control at 140 g/ha [10]: 85 to 94%; pest or weed control at 140 g/ha [15]: 0 to 29%
6 | COC(=O)c1nc(-c2ccc(C(F)(F)F)cc2Cl)c(SC)cc1Cl [F7, methyl 3-chloro-6-(2-chloro-4-(trifluoromethyl)phenyl)-5-(methylthio)picolinate] |  |  |  |  |  |  |  |  |  |  |  |  |  | 0 to 29% | 0 to 29% | 0 to 29% | 0 to 29% | 0 to 29% | 0 to 29% | 0 to 29% | pest or weed control at 140 g/ha (barnyardgrass (Echinochloa crus-galli), 14 Days After Application, read-out: Visual Growth Reduction (%) ECHCG): 0 to 29%; pest or weed control at 140 g/ha (common chickweed (Stellaria media), 14 Days After Application, read-out: Visual Growth Reduction (%) STEME): 0 to 29%; pest or weed control at 140 g/ha (giant foxtail (Setaria faberi), 14 Days After Application, read-out: Visual Growth Reduction (%) SETFA): 0 to 29%; pest or weed control at 140 g/ha (ivy-leaf morning glory (Ipomoea hederacea), 14 Days After Application, read-out: Visual Growth Reduction (%) IPOHE): 0 to 29%; pest or weed control at 140 g/ha (johnsongrass (Sorghum vulgare), 14 Days After Application, read-out: Visual Growth Reduction (%) SORVU): 0 to 29%; pest or weed control at 140 g/ha (kochia (Bassia scoparia), 14 Days After Application, read-out: Visual Growth Reduction (%) KCHSC): 0 to 29%; pest or weed control at 140 g/ha (rice (Oryza sativa), 14 Days After Application, read-out: Visual Growth Reduction (%) ORYSA): 0 to 29%; pest or weed control at 140 g/ha (wheat, spring (Triticum aestivum), 14 Days After Application, read-out: Visual Growth Reduction (%) TRZAS): 0 to 29%
7 | COC(=O)c1nc(-c2cc3c(cc2F)OC(F)(F)O3)c(F)cc1Cl [F173, Methyl 3-chloro-5-fluoro-6-(2,2,6-trifluorobenzo[d] [1,3]dioxol-5-yl)picolinate] | 85 to 94% | 95 to 100% | 60 to 74% | 0 to 29% | 75 to 84% | 95 to 100% | 0 to 29% | 60 to 74% |  |  |  |  |  | 60 to 74% | 95 to 100% | 75 to 84% | 95 to 100% | 85 to 94% | 75 to 84% | 95 to 100% | 
8 | COC(=O)c1nc(-c2ccc(C)cc2Cl)ccc1Cl [F60, Methyl 3-chloro-6-(2-chloro-4-methylphenyl) picolinate] | 0 to 29% | 45 to 59% | 0 to 29% |  | 0 to 29% | 0 to 29% | 0 to 29% |  |  |  |  |  |  | 0 to 29% | 60 to 74% | 0 to 29% | 0 to 29% | 0 to 29% | 0 to 29% | 0 to 29% | 
9 | COC(=O)c1nc(-c2ccc(Cl)c(F)c2C)ccc1Cl [F298, Methyl 3-chloro-6-(4-chloro-3-fluoro-2-methylphenyl) picolinate] | 0 to 29% | 95 to 100% | 0 to 29% | 0 to 29% | 75 to 84% | 75 to 84% | 0 to 29% | 0 to 29% | 0 to 29% | 0 to 29% | 75 to 84% | 30 to 44% | 0 to 29% |  |  |  |  |  |  |  | pest or weed control at 140 g/ha [10]: 60 to 74%; pest or weed control at 140 g/ha [15]: 0 to 29%

Reference: patent publication US20230017045A1, “PYRIDINE AND PYRIMIDINE CARBOXYLATE HERBICIDES AND METHODS OF USE THEREOF” (Dow AgroSciences LLC, priority 2017, published 2023)
